From patent publication US20230085307A1, “PYRIDAZINONE COMPOUND AND HERBICIDE” (NISSAN CHEMICAL CORPORATION, priority 2019, published 2023)

What was measured:
late watergrass = assay: Test Example 1: herbicidal activity, application before weed generation under submerged conditions (Table 16, symbol A); type: in vivo, late watergrass (Echinochloa oryzicola); conditions: amount of applied herbicide 320 g/ha
Method in brief: (§1)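 Alluvial soil was flooded to 4 cm depth, weed seeds were sown mixed and 2.5-leaf rice seedlings were transplanted. On sowing day, the compound's emulsion, diluted in water to a set dose, was applied to the water surface. Plants grew at 25–30 °C and were scored 0–5 after three weeks.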

Japanese bulrush = assay: Test Example 1: herbicidal activity, application before weed generation under submerged conditions (Table 16, symbol B); type: in vivo, Japanese bulrush (Schoenoplectus juncoides); conditions: amount of applied herbicide 320 g/ha
Method in brief: as §1

oval-leafed pondweed = assay: Test Example 1: herbicidal activity, application before weed generation under submerged conditions (Table 16, symbol C); type: in vivo, oval-leafed pondweed (Monochoria vaginalis); conditions: amount of applied herbicide 320 g/ha
Method in brief: as §1

barnyard grass [1] = assay: Test Example 3: herbicidal effect by foliage application, Wagner pot (Table 18, symbol H); type: in vivo, barnyard grass (Echinochloa crus-galli); conditions: amount of applied herbicide 320 g/ha
Method in brief: (§2)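 Plants were sown in alluvial soil held under 0.1–0.5 cm standing water and grown 14 days in a greenhouse at 25–30 °C. An emulsifiable formulation, water-diluted to the set dose, was then sprayed onto the foliage, and effects were scored three weeks later using previously defined criteria.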

Chinese sprangletop = assay: Test Example 3: herbicidal effect by foliage application, Wagner pot (Table 18, symbol D); type: in vivo, chinese sprangletop (Leptochloa chinensis); conditions: amount of applied herbicide 320 g/ha
Method in brief: as §2

rice flat sedge = assay: Test Example 3: herbicidal effect by foliage application, Wagner pot (Table 18, symbol E); type: in vivo, rice flat sedge (Cyperus iria); conditions: amount of applied herbicide 320 g/ha
Method in brief: as §2

southern crabgrass [2] = assay: Test Example 4: herbicidal effect by soil treatment (Table 19, symbol F); type: in vivo, southern crabgrass (Digitaria ciliaris); conditions: amount of applied herbicide 320 g/ha
Method in brief: (§3)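 Seeds were sown in sterilized diluvial soil and covered with about 1.5 cm of soil. An emulsion formulation diluted with water to a predetermined herbicide amount was sprayed evenly onto the soil surface. Plants grew in a greenhouse at 25° C. to 30° C., and the effect was scored three weeks after application using criteria from an earlier test.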

green foxtail [3] = assay: Test Example 4: herbicidal effect by soil treatment (Table 19, symbol G); type: in vivo, green foxtail (Setaria viridis); conditions: amount of applied herbicide 320 g/ha
Method in brief: as §3

barnyard grass [4] = assay: Test Example 4: herbicidal effect by soil treatment (Table 19, symbol H); type: in vivo, barnyard grass (Echinochloa crus-galli); conditions: amount of applied herbicide 320 g/ha
Method in brief: as §3

wild oat [5] = assay: Test Example 4: herbicidal effect by soil treatment (Table 19, symbol I); type: in vivo, wild oat (Avena fatua); conditions: amount of applied herbicide 320 g/ha
Method in brief: as §3

blackgrass [6] = assay: Test Example 4: herbicidal effect by soil treatment (Table 19, symbol J); type: in vivo, blackgrass (Alopecurus myosuroides); conditions: amount of applied herbicide 320 g/ha
Method in brief: as §3

Italian ryegrass [7] = assay: Test Example 4: herbicidal effect by soil treatment (Table 19, symbol K); type: in vivo, Italian ryegrass (Lolium multiflorum); conditions: amount of applied herbicide 320 g/ha
Method in brief: as §3

windgrass [8] = assay: Test Example 4: herbicidal effect by soil treatment (Table 19, symbol L); type: in vivo, windgrass (Apera spica-venti); conditions: amount of applied herbicide 320 g/ha
Method in brief: as §3

velvetleaf [9] = assay: Test Example 4: herbicidal effect by soil treatment (Table 19, symbol M); type: in vivo, velvetleaf (Abutilon theophrasti); conditions: amount of applied herbicide 320 g/ha
Method in brief: as §3

redroot pigweed [10] = assay: Test Example 4: herbicidal effect by soil treatment (Table 19, symbol N); type: in vivo, redroot pigweed (Amaranthus retroflexus); conditions: amount of applied herbicide 320 g/ha
Method in brief: as §3

lambsquarters [11] = assay: Test Example 4: herbicidal effect by soil treatment (Table 19, symbol O); type: in vivo, lambsquarters (Chenopodium album); conditions: amount of applied herbicide 320 g/ha
Method in brief: as §3

chickweed [12] = assay: Test Example 4: herbicidal effect by soil treatment (Table 19, symbol P); type: in vivo, common chickweed (Stellaria media); conditions: amount of applied herbicide 320 g/ha
Method in brief: as §3

false cleavers [13] = assay: Test Example 4: herbicidal effect by soil treatment (Table 19, symbol Q); type: in vivo, false cleavers (Galium spurium); conditions: amount of applied herbicide 320 g/ha
Method in brief: as §3

persian speedwell [14] = assay: Test Example 4: herbicidal effect by soil treatment (Table 19, symbol R); type: in vivo, Persian speedwell (Veronica persica); conditions: amount of applied herbicide 320 g/ha
Method in brief: as §3

southern crabgrass [15] = assay: Test Example 5: herbicidal effect by foliage application, plastic box (Table 20, symbol F); type: in vivo, southern crabgrass (Digitaria ciliaris); conditions: foliage application, 320 g/ha, evaluated 3 weeks after application
Method in brief: (§4)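 Plants sown in sterilized diluvial soil and grown 14 days in a greenhouse at 25° C to 30° C, then sprayed on the foliage with the compound's emulsion diluted in water to a predetermined herbicide amount. Injury to weeds and crops scored three weeks after application on a visual rating scale.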

green foxtail [16] = assay: Test Example 5: herbicidal effect by foliage application, plastic box (Table 20, symbol G); type: in vivo, green foxtail (Setaria viridis); conditions: foliage application, 320 g/ha, evaluated 3 weeks after application
Method in brief: as §4

barnyard grass [17] = assay: Test Example 5: herbicidal effect by foliage application, plastic box (Table 20, symbol H); type: in vivo, barnyard grass (Echinochloa crus-galli); conditions: foliage application, 320 g/ha, evaluated 3 weeks after application
Method in brief: as §4

wild oat [18] = assay: Test Example 5: herbicidal effect by foliage application, plastic box (Table 20, symbol I); type: in vivo, wild oat (Avena fatua); conditions: foliage application, 320 g/ha, evaluated 3 weeks after application
Method in brief: as §4

blackgrass [19] = assay: Test Example 5: herbicidal effect by foliage application, plastic box (Table 20, symbol J); type: in vivo, blackgrass (Alopecurus myosuroides); conditions: foliage application, 320 g/ha, evaluated 3 weeks after application
Method in brief: as §4

Italian ryegrass [20] = assay: Test Example 5: herbicidal effect by foliage application, plastic box (Table 20, symbol K); type: in vivo, Italian ryegrass (Lolium multiflorum); conditions: foliage application, 320 g/ha, evaluated 3 weeks after application
Method in brief: as §4

windgrass [21] = assay: Test Example 5: herbicidal effect by foliage application, plastic box (Table 20, symbol L); type: in vivo, windgrass (Apera spica-venti); conditions: foliage application, 320 g/ha, evaluated 3 weeks after application
Method in brief: as §4

velvetleaf [22] = assay: Test Example 5: herbicidal effect by foliage application, plastic box (Table 20, symbol M); type: in vivo, velvetleaf (Abutilon theophrasti); conditions: foliage application, 320 g/ha, evaluated 3 weeks after application
Method in brief: as §4

redroot pigweed [23] = assay: Test Example 5: herbicidal effect by foliage application, plastic box (Table 20, symbol N); type: in vivo, redroot pigweed (Amaranthus retroflexus); conditions: foliage application, 320 g/ha, evaluated 3 weeks after application
Method in brief: as §4

lambsquarters [24] = assay: Test Example 5: herbicidal effect by foliage application, plastic box (Table 20, symbol O); type: in vivo, lambsquarters (Chenopodium album); conditions: foliage application, 320 g/ha, evaluated 3 weeks after application
Method in brief: as §4

chickweed [25] = assay: Test Example 5: herbicidal effect by foliage application, plastic box (Table 20, symbol P); type: in vivo, common chickweed (Stellaria media); conditions: foliage application, 320 g/ha, evaluated 3 weeks after application
Method in brief: as §4

false cleavers [26] = assay: Test Example 5: herbicidal effect by foliage application, plastic box (Table 20, symbol Q); type: in vivo, false cleavers (Galium spurium); conditions: foliage application, 320 g/ha, evaluated 3 weeks after application
Method in brief: as §4

persian speedwell [27] = assay: Test Example 5: herbicidal effect by foliage application, plastic box (Table 20, symbol R); type: in vivo, Persian speedwell (Veronica persica); conditions: foliage application, 320 g/ha, evaluated 3 weeks after application
Method in brief: as §4

In the case of COc1ccc2c(-c3c(O)c(C)nn(C)c3=O)c(-c3ccccc3OC)oc2c1 [10-001], the “Herbicidal effect, A: late watergrass” value (late watergrass) is reported as 0 (Herbicidal rate of 5% or less (almost no effect)), the “Herbicidal effect, B: Japanese bulrush” value (Japanese bulrush) is reported as 0 (Herbicidal rate of 5% or less (almost no effect)) and the “Herbicidal effect, C: oval-leafed pondweed” value (oval-leafed pondweed) is reported as 3 (Herbicidal rate of 40% or more and less than 70%). The “Herbicidal effect on H (barnyard grass), foliage application” value (barnyard grass [1]) was 3 (Herbicidal rate of 40% or more and less than 70%), the “Herbicidal effect on D (Chinese sprangletop), foliage application” value (Chinese sprangletop) was 0 (Herbicidal rate of 5% or less (almost no effect)) and the “Herbicidal effect on E (rice flat sedge), foliage application” value (rice flat sedge) was 2 (Herbicidal rate of 20% or more and less than 40%). For the same compound, the “F: southern crabgrass, herbicidal effect grade” value (southern crabgrass [2]) was 0 (Herbicidal rate of 5% or less (almost no effect)), the “G: green foxtail, herbicidal effect grade” value (green foxtail [3]) was 0 (Herbicidal rate of 5% or less (almost no effect)) and the “H: barnyard grass, herbicidal effect grade” value (barnyard grass [4]) was 0 (Herbicidal rate of 5% or less (almost no effect)). For the same compound, the “I: wild oat, herbicidal effect grade” value (wild oat [5]) was 0 (Herbicidal rate of 5% or less (almost no effect)), the “J: blackgrass, herbicidal effect grade” value (blackgrass [6]) was 0 (Herbicidal rate of 5% or less (almost no effect)) and the “K: Italian ryegrass, herbicidal effect grade” value (Italian ryegrass [7]) was 0 (Herbicidal rate of 5% or less (almost no effect)). For the same compound, the “L: windgrass, herbicidal effect grade” value (windgrass [8]) was 0 (Herbicidal rate of 5% or less (almost no effect)), the “M: velvetleaf, herbicidal effect grade” value (velvetleaf [9]) was 0 (Herbicidal rate of 5% or less (almost no effect)) and the “N: redroot pigweed, herbicidal effect grade” value (redroot pigweed [10]) was 0 (Herbicidal rate of 5% or less (almost no effect)). The “O: lambsquarters, herbicidal effect grade” value (lambsquarters [11]) was 0 (Herbicidal rate of 5% or less (almost no effect)), the “P: chickweed, herbicidal effect grade” value (chickweed [12]) was 0 (Herbicidal rate of 5% or less (almost no effect)) and the “Q: false cleavers, herbicidal effect grade” value (false cleavers [13]) was 0 (Herbicidal rate of 5% or less (almost no effect)). The “R: persian speedwell, herbicidal effect grade” value (persian speedwell [14]) was 5 (Herbicidal rate of 90% or more (almost completely withered)), the “F (southern crabgrass) herbicidal effect grade” value (southern crabgrass [15]) was 2 (Herbicidal rate of 20% or more and less than 40%) and the “G (green foxtail) herbicidal effect grade” value (green foxtail [16]) was 3 (Herbicidal rate of 40% or more and less than 70%). For the same compound, the “H (barnyard grass) herbicidal effect grade” value (barnyard grass [17]) was 3 (Herbicidal rate of 40% or more and less than 70%), the “I (wild oat) herbicidal effect grade” value (wild oat [18]) was 0 (Herbicidal rate of 5% or less (almost no effect)) and the “J (blackgrass) herbicidal effect grade” value (blackgrass [19]) was 0 (Herbicidal rate of 5% or less (almost no effect)). For the same compound, the “K (Italian ryegrass) herbicidal effect grade” value (Italian ryegrass [20]) was 0 (Herbicidal rate of 5% or less (almost no effect)), the “L (windgrass) herbicidal effect grade” value (windgrass [21]) was 3 (Herbicidal rate of 40% or more and less than 70%) and the “M (velvetleaf) herbicidal effect grade” value (velvetleaf [22]) was 3 (Herbicidal rate of 40% or more and less than 70%). For the same compound, the “N (redroot pigweed) herbicidal effect grade” value (redroot pigweed [23]) was 3 (Herbicidal rate of 40% or more and less than 70%), the “O (lambsquarters) herbicidal effect grade” value (lambsquarters [24]) was 4 (Herbicidal rate of 70% or more and less than 90%) and the “P (chickweed) herbicidal effect grade” value (chickweed [25]) was 5 (Herbicidal rate of 90% or more (almost completely withered)). The “Q (false cleavers) herbicidal effect grade” value (false cleavers [26]) was 4 (Herbicidal rate of 70% or more and less than 90%) and the “R (persian speedwell) herbicidal effect grade” value (persian speedwell [27]) was 5 (Herbicidal rate of 90% or more (almost completely withered)).
